Species: Rattus norvegicus
Test: DrugMatrix - Regimen: Daily Repeat
Format: toxicity, organism-based, Sprague-Dawley
Parameters: regimen Daily Repeat, gender Male, age 6-8 weeks
Conditions: in vivo, po, 41 mg/kg, route oral GAVAGE, dose level Low, vehicle 100 % WATER; for ABSOLUTE BASOPHIL / ABSOLUTE EOSINOPHIL / ABSOLUTE LYMPHOCYTE / ABSOLUTE MONOCYTE / ABSOLUTE SEGMENTED NEUTROPHIL / BASOPHIL / EOSINOPHIL / ERYTHROCYTE COUNT / HEMATOCRIT / HEMOGLOBIN / LEUKOCYTE COUNT / LYMPHOCYTE / MEAN CORPUSCULAR HEMOGLOBIN / MEAN CORPUSCULAR HEMOGLOBIN CONCENTRATION / MEAN CORPUSCULAR VOLUME / MONOCYTE / NEUTROPHIL / NUCLEATED RED BLOOD CELLS / PLATELET COUNT: tissue Blood; for ALANINE AMINOTRANSFERASE / ALBUMIN / ALKALINE PHOSPHATASE / ASPARTATE AMINOTRANSFERASE / BLOOD UREA NITROGEN / CARBON DIOXIDE / CHLORIDE / CHOLESTEROL / CREATINE PHOSPHOKINASE / CREATININE / GLUCOSE / LACTATE DEHYDROGENASE / LIPASE / PHOSPHORUS / POTASSIUM / SODIUM / TOTAL BILIRUBIN / TOTAL PROTEIN / URIC ACID: tissue Plasma

CC(O)(P(=O)(O)O)P(=O)(O)O [ETIDRONIC ACID]
ABSOLUTE BASOPHIL (72 h, time 3 day): 0 CELLS/uL
ABSOLUTE EOSINOPHIL (72 h, time 3 day): 0 CELLS/uL
ABSOLUTE LYMPHOCYTE (72 h, time 3 day): 15847 CELLS/uL
ABSOLUTE MONOCYTE (72 h, time 3 day): 485 CELLS/uL
ABSOLUTE SEGMENTED NEUTROPHIL (72 h, time 3 day): 1868 CELLS/uL
BASOPHIL (72 h, time 3 day): 0%
EOSINOPHIL (72 h, time 3 day): 0%
ERYTHROCYTE COUNT (72 h, time 3 day): 5.74 x10E6/uL
HEMATOCRIT (72 h, time 3 day): 35.63%
HEMOGLOBIN (72 h, time 3 day): 13.33 G/DL
LEUKOCYTE COUNT (72 h, time 3 day): 18.2 x10E3/uL
LYMPHOCYTE (72 h, time 3 day): 86.67%
MEAN CORPUSCULAR HEMOGLOBIN (72 h, time 3 day): 23.27 pg
MEAN CORPUSCULAR HEMOGLOBIN CONCENTRATION (72 h, time 3 day): 37.43 G/DL
MEAN CORPUSCULAR VOLUME (72 h, time 3 day): 62.13 fL
MONOCYTE (72 h, time 3 day): 2.67%
NEUTROPHIL (72 h, time 3 day): 10.67%
NUCLEATED RED BLOOD CELLS (72 h, time 3 day): 0 /100WBC
PLATELET COUNT (72 h, time 3 day): 1274.67 x10E3/uL
ALANINE AMINOTRANSFERASE (72 h, time 3 day): 42.33 u/L
ALBUMIN (72 h, time 3 day): 4.67 G/DL
ALKALINE PHOSPHATASE (72 h, time 3 day): 379 u/L
ASPARTATE AMINOTRANSFERASE (72 h, time 3 day): 79 u/L
BLOOD UREA NITROGEN (72 h, time 3 day): 20.67 mg/dL
CARBON DIOXIDE (72 h, time 3 day): 24 mmol/L
CHLORIDE (72 h, time 3 day): 100 MEQ/L
CHOLESTEROL (72 h, time 3 day): 62.33 mg/dL
CREATINE PHOSPHOKINASE (72 h, time 3 day): 167.33 u/L
CREATININE (72 h, time 3 day): 0.19 mg/dL
GLUCOSE (72 h, time 3 day): 153 mg/dL
LACTATE DEHYDROGENASE (72 h, time 3 day): 126 u/L
LIPASE (72 h, time 3 day): 9.33 u/L
PHOSPHORUS (72 h, time 3 day): 12.13 mg/dL
POTASSIUM (72 h, time 3 day): 7.21 MEQ/L
SODIUM (72 h, time 3 day): 143.1 MEQ/L
TOTAL BILIRUBIN (72 h, time 3 day): 0.2 mg/dL
TOTAL PROTEIN (72 h, time 3 day): 5.6 G/DL
URIC ACID (72 h, time 3 day): 1.7 mg/dL
ABSOLUTE BASOPHIL (120 h, time 5 day): 0 CELLS/uL
ABSOLUTE EOSINOPHIL (120 h, time 5 day): 0 CELLS/uL
ABSOLUTE LYMPHOCYTE (120 h, time 5 day): 11460.33 CELLS/uL
ABSOLUTE MONOCYTE (120 h, time 5 day): 399 CELLS/uL
ABSOLUTE SEGMENTED NEUTROPHIL (120 h, time 5 day): 1374 CELLS/uL
BASOPHIL (120 h, time 5 day): 0%
EOSINOPHIL (120 h, time 5 day): 0%
ERYTHROCYTE COUNT (120 h, time 5 day): 5.69 x10E6/uL
HEMATOCRIT (120 h, time 5 day): 35%
HEMOGLOBIN (120 h, time 5 day): 13.13 G/DL
LEUKOCYTE COUNT (120 h, time 5 day): 13.23 x10E3/uL
LYMPHOCYTE (120 h, time 5 day): 86.67%
MEAN CORPUSCULAR HEMOGLOBIN (120 h, time 5 day): 23.1 pg
MEAN CORPUSCULAR HEMOGLOBIN CONCENTRATION (120 h, time 5 day): 37.57 G/DL
MEAN CORPUSCULAR VOLUME (120 h, time 5 day): 61.53 fL
MONOCYTE (120 h, time 5 day): 3%
NEUTROPHIL (120 h, time 5 day): 10.33%
NUCLEATED RED BLOOD CELLS (120 h, time 5 day): 0 /100WBC
PLATELET COUNT (120 h, time 5 day): 1338.67 x10E3/uL
ALANINE AMINOTRANSFERASE (120 h, time 5 day): 43 u/L
ALBUMIN (120 h, time 5 day): 4.23 G/DL
ALKALINE PHOSPHATASE (120 h, time 5 day): 323.33 u/L
ASPARTATE AMINOTRANSFERASE (120 h, time 5 day): 88.33 u/L
BLOOD UREA NITROGEN (120 h, time 5 day): 18.67 mg/dL
CARBON DIOXIDE (120 h, time 5 day): 23 mmol/L
CHLORIDE (120 h, time 5 day): 108.5 MEQ/L
CHOLESTEROL (120 h, time 5 day): 50 mg/dL
CREATINE PHOSPHOKINASE (120 h, time 5 day): 367.67 u/L
CREATININE (120 h, time 5 day): 0.18 mg/dL
GLUCOSE (120 h, time 5 day): 149.33 mg/dL
LACTATE DEHYDROGENASE (120 h, time 5 day): 265.67 u/L
LIPASE (120 h, time 5 day): 8.5 u/L
PHOSPHORUS (120 h, time 5 day): 10.7 mg/dL
POTASSIUM (120 h, time 5 day): 5.74 MEQ/L
SODIUM (120 h, time 5 day): 146.55 MEQ/L
TOTAL BILIRUBIN (120 h, time 5 day): 0.2 mg/dL
TOTAL PROTEIN (120 h, time 5 day): 5.8 G/DL
URIC ACID (120 h, time 5 day): 1.53 mg/dL

From ChEMBL document CHEMBL3885881, “DrugMatrix”
